Where two headings read alike, the source gives them in different places. Ends that are not written are not given here.

Data on four compounds can be found in US7375168B2, “Protein compatible methods and compounds for controlling the morphology and shrinkage of silica derived from polyol-modified silanes” (McMaster University, priority 2002, dated 2008).

For assay [1], the target named is T1, dihydrofolate reductase (DHFR) (Escherichia coli, UniProt P0ABQ4).
T1 construct: made in house
Format: binding, E. coli. The settings on record: for elution time: 20 nM compounds, 100 nM fluorescein, 2 mM ammonium acetate; for elution / retention time: column with 50 pmol DHFR initial loading (FIG. 19 Panel B), compounds infused at 20 nM, fluorescein 100 nM.

For assay [2], the target named is T2, Src kinase, human recombinant (Homo sapiens, UniProt P12931).
T2 construct: purchased Sigma-Aldrich (Oakville, ON) S5439; host or cells: insect cells
The experiment in a line: Src PTK inhibition, free and entrapped in GLTES/DGS silica, TR-FRET detection of peptide phosphorylation. The note with it: substrate P1716, ATP as in FIG. 29. Type of assay: biochemical. (In general: In TR-FRET formats the signal depends on donor and acceptor labels being close together.)

Where [3] appears, read: FIG. 22 Panel A, column cut from one continuously filled capillary.
Where [4] appears, read: FIG. 22 Panel B, second column from the same capillary.
The mark [5] stands for this setting: Src entrapped in GLTES/DGS derived silica, read-out: IC50 Entrapped in Silica.
[6] abbreviates: free Src in solution, read-out: IC50 Solution.

Turning to `O=c1ccc2ccccc2o1` [coumarin], the “elution time” value is 2.7 min in assay [1] (setting [3]) and 2.6 min in assay [1] (setting [4]). Besides, the “elution / retention time” value in assay [1] was 2 min.
Take `COc1cc2ncnc(Nc3ccc(Oc4ccccc4)cc3)c2cc1OC` [Src Kinase Inhibitor I, 4-(4-phenoxyanilino)-6,7-dimethoxyquinazoline]: the IC50 (usually the midpoint of a concentration-inhibition curve) in assay [2] (setting [5]) fell in the range of 0.6 to 0.8 µM; in assay [2] (setting [6]) it was 0.5 to 0.7 µM.
The like results for YIYGSFK [YIYGSFK] were, in that order, 1000 to 1400 µM and 800 to 1200 µM.
For `Nc1nc2ncc(CNc3ccc(C(=O)N[C@@H](CCC(=O)O)C(=O)O)cc3)nc2c(=O)[nH]1` [folic acid], the entries for the “elution time” value in assay [1] (setting [3]) and in assay [1] (setting [4]) were 8.9 min and 8.4 min, respectively. For the same compound, the “elution / retention time” value in assay [1] turned out to be 7 min.
